Results taken from the NIST ThermoML archive (doi:10.1021/je3010535).
Several values for one entry are separate records, joined by “and”; a condition that tells them apart may be missing. Identical values can stand only once. Numbers after ± are expanded uncertainties.

Assay: Henry's Law constant (molality scale); of the first substance listed, at infinite dilution; mn = molality of the nth substance listed, in mol/kg
Conditions: Liquid, Chromatography, m1 = 0

Row | Structure (SMILES) | Henry's Law constant (274.15 K) | Henry's Law constant (294.65 K) | Henry's Law constant (296.15 K) | Henry's Law constant (310.15 K) | Henry's Law constant (320.15 K) | Henry's Law constant (331.15 K) | Henry's Law constant (313.15 K) | Henry's Law constant (326.15 K)
1 | ClCC(Cl)Cl [1,1,2-trichloroethane] + O | 16.9 ± 5.1 kPa·kg/mol | 62 kPa·kg/mol and 60.4 kPa·kg/mol | 65 ± 20 kPa·kg/mol | 148 ± 44 kPa·kg/mol | 263 ± 79 kPa·kg/mol | 419 ± 130 kPa·kg/mol | – | –
2 | ClCCCCl [1,3-dichloropropane] + O | 18.8 ± 5.6 kPa·kg/mol | 65 kPa·kg/mol and 65.9 kPa·kg/mol | 70.6 ± 21 kPa·kg/mol | 156 ± 47 kPa·kg/mol | 287 ± 86 kPa·kg/mol | 421 ± 130 kPa·kg/mol | – | –
3 | Cc1ccc(C)cc1 [1,4-dimethylbenzene] + O | 147 ± 59 kPa·kg/mol | 381 kPa·kg/mol and 439 kPa·kg/mol | 457 ± 180 kPa·kg/mol | – | – | 1810 ± 730 kPa·kg/mol | 1170 ± 470 kPa·kg/mol | 2090 ± 840 kPa·kg/mol
4 | CCC(C)c1ccccc1 (stereo not drawn) [(1-methylpropyl)benzene] + O | 251 kPa·kg/mol | – | 634 kPa·kg/mol | 1100 kPa·kg/mol | – | 2310 kPa·kg/mol | 2690 kPa·kg/mol | 4160 kPa·kg/mol
5 | ClCC(Cl)(Cl)Cl [1,1,1,2-tetrachloroethane] + O | 60.3 ± 18 kPa·kg/mol | 184 kPa·kg/mol and 168 kPa·kg/mol | 199 ± 60 kPa·kg/mol | 388 ± 120 kPa·kg/mol | – | 1090 ± 330 kPa·kg/mol | – | 832 ± 250 kPa·kg/mol
6 | CC(C)c1ccccc1 [isopropylbenzene] + O | 212 ± 64 kPa·kg/mol | 536 kPa·kg/mol and 588 kPa·kg/mol | 622 ± 190 kPa·kg/mol | 1380 ± 410 kPa·kg/mol | – | 3130 ± 940 kPa·kg/mol | 1960 ± 590 kPa·kg/mol | 3260 ± 980 kPa·kg/mol
7 | Cc1cccc(C)c1 [1,3-dimethylbenzene] + O | 147 ± 59 kPa·kg/mol | 381 kPa·kg/mol and 439 kPa·kg/mol | 457 ± 180 kPa·kg/mol | – | – | 1810 ± 730 kPa·kg/mol | 1170 ± 470 kPa·kg/mol | 2090 ± 840 kPa·kg/mol
8 | CC(C)(C)c1ccccc1 [(1,1-dimethylethyl)benzene] + O | 189 ± 75 kPa·kg/mol | 448 kPa·kg/mol and 554 kPa·kg/mol | 562 ± 220 kPa·kg/mol | 1020 ± 410 kPa·kg/mol | – | 2160 ± 860 kPa·kg/mol | 2070 ± 830 kPa·kg/mol | 3330 ± 1300 kPa·kg/mol
9 | C=Cc1ccccc1 [styrene] + O | 62.4 ± 19 kPa·kg/mol | 196 kPa·kg/mol | 224 ± 67 kPa·kg/mol | 382 ± 110 kPa·kg/mol | – | 972 ± 290 kPa·kg/mol | 507 ± 150 kPa·kg/mol | 925 ± 280 kPa·kg/mol
10 | ClC(Br)Br [chlorodibromomethane] + O | 22.7 ± 6.8 kPa·kg/mol | 80.5 kPa·kg/mol and 82.2 kPa·kg/mol | 85.7 ± 26 kPa·kg/mol | 179 ± 54 kPa·kg/mol | 327 ± 98 kPa·kg/mol | 536 ± 160 kPa·kg/mol | – | –
